What was measured:
Format in all cases: physicochemical
[1] = Approximate solubility at 25° C. and 50° C. (visual)
Protocol: About 5 mg of Compound 1 Form A was weighed to a 2 mL glass vial. 20 μL aliquots of each solvent were added to dissolve the drug substance at 25° C. About 10 mg of Compound 1 Form A was weighed to a 2 mL glass vial. 20 μL aliquots of each solvent were added to dissolve the drug substance at 50° C. Vortex and sonication were applied to assist dissolution. Maximum volume of each solvent added was 1 mL. Approximate solubility was determined by visual observation.
About 5 mg of Compound 1 Form B was weighed to a 2 mL glass vial. 20 μL aliquots of each solvent were added to dissolve the drug substance at 25° C. About 10 mg of Compound 1 Form B was weighed to a 2 mL glass vial. […] aliquots of each solvent were added to dissolve the drug substance at 50° C. Vortex and sonication were applied to assist dissolution. Maximum volume of each solvent added is 1 mL. Approximate solubility was determined by visual observation.

[2] = Bulk stability of Compound 1 Form B (1 week stress)
[3] = Compression simulation experiments; conditions: for Comments: color / Comments: crystallinity / XRPD: compressed 5 minutes
Protocol: About 20 mg of Compound 1 Form B was compressed for 5 minutes under 2 MPa and 10 MPa with a hydraulic press. Potential form change and degree of crystallinity were evaluated by XRPD.

[4] = Solid state, photo (visible light, 1.2 million lux-hrs)

SMILES: CCN(C)S(=O)(=O)Nc1ccc(F)c(Oc2ccc3ncn([C@H]4COC5(CCN(C(=O)CC6(O)CCN(c7cc8c(cc7F)c(N7CCC(=O)NC7=O)nn8C)CC6)CC5)C4)c(=O)c3c2)c1C#N [Compound 1 Form B]
- solubility ([1]; 1,4-Dioxane, 25° C., listed as Form B): 20~25 mg/mL
- solubility ([1]; 1,4-Dioxane, 50° C., listed as Form B): 28~40 mg/mL
- solubility ([1]; 2-MeTHF, 25° C.): <5 mg/mL
- solubility ([1]; 2-MeTHF, 50° C.): <5 mg/mL
- solubility ([1]; Acetone, 25° C., listed as Form B): <5 mg/mL
- solubility ([1]; Acetone, 50° C., listed as Form B): <5 mg/mL
- solubility ([1]; Acetonitrile, 25° C., listed as Form B): <5 mg/mL
- solubility ([1]; Acetonitrile, 50° C., listed as Form B): <5 mg/mL
- solubility ([1]; DCM, 25° C., listed as Form B): 83~125 mg/mL
- solubility ([1]; DMSO, 25° C.): at least 250 mg/mL
- solubility ([1]; DMSO, 25° C., listed as Form B): >250 mg/mL
- solubility ([1]; Ethanol, 50° C.): <5 mg/mL
- solubility ([1]; Heptane, 50° C.): <5 mg/mL
- solubility ([1]; Isopropanol, 50° C.): <5 mg/mL
- solubility ([1]; MTBE, 50° C.): <5 mg/mL
- solubility ([1]; Methanol, 25° C.): <5 mg/mL
- solubility ([1]; Methanol, 50° C.): <5 mg/mL
- solubility ([1]; THF, 25° C., listed as Form B): 10~13 mg/mL
- solubility ([1]; THF, 50° C., listed as Form B): 16~20 mg/mL
- solubility ([1]; Toluene, 50° C.): <5 mg/mL
- solubility ([1]; Water, 50° C.): <5 mg/mL
- Bulk (XRPD) crystallinity [2, 4]: Slight decrease in crystallinity
- Color [2, 4]: No change of color
- Purity, Bulk (HPLC) [2, 4]: 96.9%
- Purity, Control (HPLC) ([2]; photo test, control sample): 99.4%
- Morphic form stability under compression ([3]; 2 MPa and 10 MPa): excellent morphic form stability
- Comments: color ([3]; 2 MPa): Slight discoloration.
- Comments: crystallinity ([3]; 2 MPa): Slight decrease in crystallinity;
- XRPD ([3]; 2 MPa): Form B
- Comments: color ([3]; 10 MPa): Slight discoloration.
- Comments: crystallinity ([3]; 10 MPa): Slight decrease in crystallinity;
- XRPD ([3]; 10 MPa): Form B

Source: patent US20250289827A1, “MORPHIC FORMS OF A MUTANT BRAF DEGRADER AND METHODS OF MANUFACTURE THEREOF” (C4 THERAPEUTICS, INC., priority 2022, published 2025)
